Laboratory results as given in ChEMBL document CHEMBL3739305, “A synthetic chalcone derivative, 2-hydroxy-3',5,5'-trimethoxychalcone (DK-139), suppresses the TNFα-induced invasive capability of MDA-MB-231 human breast cancer cells by inhibiting NF-κB-mediated GROα expression” (Bioorg Med Chem Lett, 2016).
Calls of active or inactive are those of the source. No cut-off for these calls is given here.

How the values were obtained:
[1] = target: T1, Inhibitor of nuclear factor kappa-B kinase subunit alpha (Homo sapiens) (UniProt O15111); assay: Inhibition of TNF-alpha-induced IKK-alpha phosphorylation in human MDA-MB-231 cells at Ser176 residue at 5 and 10 uM pretreated for 30 mins followed by addition of TNF-alpha for 1 hr by immunoblot analysis; format: cell-based
T1 sequence (whole entry): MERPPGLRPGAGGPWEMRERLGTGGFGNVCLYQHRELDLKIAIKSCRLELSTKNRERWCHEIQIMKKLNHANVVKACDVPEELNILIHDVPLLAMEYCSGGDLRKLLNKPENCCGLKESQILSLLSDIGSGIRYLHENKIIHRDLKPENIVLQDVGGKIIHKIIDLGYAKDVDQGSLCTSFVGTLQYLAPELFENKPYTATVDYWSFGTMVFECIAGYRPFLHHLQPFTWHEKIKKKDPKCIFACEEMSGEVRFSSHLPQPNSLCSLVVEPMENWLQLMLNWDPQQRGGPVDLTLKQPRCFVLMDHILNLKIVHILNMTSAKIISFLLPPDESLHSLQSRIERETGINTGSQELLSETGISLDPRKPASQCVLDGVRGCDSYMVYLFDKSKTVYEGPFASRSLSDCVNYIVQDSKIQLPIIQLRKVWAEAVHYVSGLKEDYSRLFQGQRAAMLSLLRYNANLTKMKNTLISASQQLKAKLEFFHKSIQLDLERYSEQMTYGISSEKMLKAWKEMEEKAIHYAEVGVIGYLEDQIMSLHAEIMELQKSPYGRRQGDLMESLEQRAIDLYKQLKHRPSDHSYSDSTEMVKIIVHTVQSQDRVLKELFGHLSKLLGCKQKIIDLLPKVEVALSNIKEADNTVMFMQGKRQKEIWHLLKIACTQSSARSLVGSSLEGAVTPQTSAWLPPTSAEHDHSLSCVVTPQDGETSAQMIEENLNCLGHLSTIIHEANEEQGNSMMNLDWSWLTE

MDA-MB-231 [2] = assay: Inhibition of TNF-alpha-induced cell migration in human MDA-MB-231 cells at 10 uM pretreated for 30 mins followed by addition of TNF-alpha measured after 6 hrs by scratch wound healing assay; format: functional, cell-based
[3] = target: T2, Inhibitor of NF-kappa-B kinase (IKK) (Homo sapiens) (UniProt O14920+O15111+Q9Y6K9); assay: Inhibition of IKK in human MDA-MB-231 cells assessed as inhibition of TNF-alpha-induced p65/RelA phosphorylation at Ser-536 residue in nucleus at 10 uM pretreated for 30 mins followed by addition of TNF-alpha for 1 hr by immunofluorescence analysis; format: cell-based
[4] = target: T2, Inhibitor of NF-kappa-B kinase (IKK) (Homo sapiens); assay: Inhibition of IKK in human MDA-MB-231 cells assessed as decrease in TNF-alpha-induced GROalpha mRNA level pretreated with compound for 30 mins followed by addition of TNF-alpha measured after 12 hrs by QR-PCR analysis; format: cell-based
MDA-MB-231 [5] = assay: Inhibition of TNF-alpha-induced cell invasion in human MDA-MB-231 cells assessed as decrease in spindle-like protrusions at 10 uM pretreated for 30 mins followed by addition of TNF-alpha by microscopic analysis; format: functional, cell-based
MDA-MB-231 [6] = assay: Inhibition of TNF-alpha-induced cell motility in human MDA-MB-231 cells assessed as lamellipodium projection at 10 uM pretreated for 30 mins followed by addition of TNF-alpha measured after 10 mins by rhodamine- phalloidin staining based assay; format: functional
[7] = target: T2, Inhibitor of NF-kappa-B kinase (IKK) (Homo sapiens); assay: Inhibition of IKK in human MDA-MB-231 cells assessed as decrease in TNF-alpha-induced GROalpha mRNA level pretreated with compound for 30 mins followed by addition of TNF-alpha measured after 12 hrs by RT-PCR analysis; format: cell-based
[8] = target: T2, Inhibitor of NF-kappa-B kinase (IKK) (Homo sapiens); assay: Inhibition of IKK in human MDA-MB-231 cells assessed as inhibition of TNF-alpha-induced NF-kappaB transcriptional activity pretreated with compound for 30 mins followed by addition of TNF-alpha for 8 hrs by luciferase reporter gene assay; format: cell-based
MDA-MB-231 [9] = assay: Inhibition of TNF-alpha-induced cell invasion in human MDA-MB-231 cells at 10 uM pretreated for 30 mins followed by addition of TNF-alpha measured after 24 hrs by matrigel invasion assay; format: functional, cell-based
[10] = target: T2, Inhibitor of NF-kappa-B kinase (IKK) (Homo sapiens); assay: Inhibition of IKK in human MDA-MB-231 cells assessed as decrease in TNF-alpha-induced GROalpha mRNA level at 10 uM pretreated for 30 mins followed by addition of TNF-alpha measured after 12 hrs by QR-PCR analysis; format: cell-based
[11] = target: T2, Inhibitor of NF-kappa-B kinase (IKK) (Homo sapiens); assay: Inhibition of IKK in human MDA-MB-231 cells assessed as inhibition of TNF-alpha-induced IkappaB phosphorylation at Ser-32 residue at 5 and 10 uM pretreated for 30 mins followed by addition of TNF-alpha for 1 hr by immunoblot analysis; format: cell-based
[12] = target: T2, Inhibitor of NF-kappa-B kinase (IKK) (Homo sapiens); assay: Inhibition of IKK in human MDA-MB-231 cells assessed as inhibition of TNF-alpha-induced GROalpha promoter activation pretreated with compound for 30 mins followed by addition of TNF-alpha for 8 hrs by luciferase reporter gene assay; format: cell-based
[13] = target: T2, Inhibitor of NF-kappa-B kinase (IKK) (Homo sapiens); assay: Inhibition of IKK in human MDA-MB-231 cells assessed as inhibition of TNF-alpha-induced p65/RelA phosphorylation at Ser-536 residue at 5 and 10 uM pretreated for 30 mins followed by addition of TNF-alpha for 1 hr by immunoblot analysis; format: cell-based
[14] = target: T3, Inhibitor of nuclear factor kappa-B kinase subunit beta (Homo sapiens) (UniProt O14920); assay: Inhibition of TNF-alpha-induced IKK-beta phosphorylation at Ser180 residue in human MDA-MB-231 cells at 5 and 10 uM pretreated for 30 mins followed by addition of TNF-alpha for 1 hr by immunoblot analysis; format: cell-based
T3 sequence (whole entry): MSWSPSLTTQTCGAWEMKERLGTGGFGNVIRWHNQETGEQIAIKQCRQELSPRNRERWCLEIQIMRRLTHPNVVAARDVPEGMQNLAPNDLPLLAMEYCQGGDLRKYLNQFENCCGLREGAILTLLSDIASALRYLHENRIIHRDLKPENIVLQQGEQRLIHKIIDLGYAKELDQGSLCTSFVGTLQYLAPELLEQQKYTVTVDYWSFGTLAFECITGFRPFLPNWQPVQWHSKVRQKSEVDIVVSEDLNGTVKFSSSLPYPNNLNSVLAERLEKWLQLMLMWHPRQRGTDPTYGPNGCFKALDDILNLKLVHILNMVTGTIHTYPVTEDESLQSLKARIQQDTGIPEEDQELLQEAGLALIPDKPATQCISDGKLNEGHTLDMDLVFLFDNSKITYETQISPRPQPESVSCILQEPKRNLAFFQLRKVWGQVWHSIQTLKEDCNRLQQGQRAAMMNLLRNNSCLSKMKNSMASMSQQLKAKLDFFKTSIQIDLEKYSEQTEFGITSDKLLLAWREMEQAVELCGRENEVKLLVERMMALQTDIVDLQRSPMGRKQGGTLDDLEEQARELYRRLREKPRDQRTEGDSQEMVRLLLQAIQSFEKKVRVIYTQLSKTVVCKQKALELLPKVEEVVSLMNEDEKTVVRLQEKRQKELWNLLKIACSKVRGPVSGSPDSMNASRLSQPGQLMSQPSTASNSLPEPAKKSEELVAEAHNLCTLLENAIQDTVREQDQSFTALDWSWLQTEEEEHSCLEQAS

inhibition [1]: Active
inhibition [3]: Active
inhibition [4]: Dose-dependent effect
inhibition [7]: Dose-dependent effect
inhibition [8]: Dose-dependent effect
fold change (FC) [10]: 4.1
inhibition [11]: Active
inhibition [12]: Dose-dependent effect
inhibition [13]: Active
inhibition [14]: Active
SMILES: COc1cc(/C=C/C(=O)c2cc(OC)ccc2O)cc(OC)c1
inhibition (MDA-MB-231 [2]): Active
inhibition (MDA-MB-231 [5]): Active
inhibition (MDA-MB-231 [6]): Active
inhibition (MDA-MB-231 [9]): Active
